Values quoted from earlier work in US5484911A, “Nucleoside 5'-diphosphate conjugates of ether lipids” (Health Research, Inc., priority 1993, dated 1996).

Tests used:
[1] = test system: herpes simplex; conditions: cited from earlier work
[2] = test system: respiratory syncytial; conditions: cited from earlier work
[3] = test system: human colorectal cancer xenografts and PSN-1 human pancreatic tumor; conditions: mouse, in vivo; cited from earlier work
[4] = test system: M5076 sarcoma and Lewis lung carcinoma; conditions: mouse, in vivo; cited from earlier work
[5] = test system: myelomonocytic WEHI-3B leukemia; conditions: mouse, in vivo; cited from earlier work
[6] = test system: rat mammary carcinoma SMT-2A; conditions: alone and in combination with VP-16; cited from earlier work
[7] = test system: L1210 leukemic cells; conditions: cited from earlier work
[8] = mouse, in vivo; cited from earlier work
[9] = test system: colon 26 carcinoma, M5076 sarcoma, Lewis lung carcinoma, and C-1300 neuroblastoma; conditions: mouse, in vivo; cited from earlier work
[10] = test system: L1210 and P388 leukemia; conditions: mouse, in vivo; cited from earlier work
[11] = test system: biosynthesis of phosphatidylinositol, phosphatidylglycerol or diphosphatidylglycerol; conditions: rat liver subcellular fractions; release of nucleoside 5'-monophosphates; cited from earlier work

## CCCCCCCCCCCCCCCCCCCCCCO [Example 1-Docosanol, 1-Docosanol]
[1]
  herpes simplex viral replication: inhibits herpes simplex and respiratory syncytial viral replication
[2]
  respiratory syncytial viral replication: inhibits herpes simplex and respiratory syncytial viral replication

## CCCCCCCCCCCCCCCCCCSCC(COP(=O)(O)OP(=O)(O)OC[C@H]1O[C@@H](n2ccc(N)nc2=O)[C@@H](O)[C@@H]1O)OC(=O)CCCCCCCCCCCCCCC (mixture of isomers) [Cytoros]
[3]
  antitumor activity: strong antitumor activity
[4]
  antimetastatic activity: displayed antimetastic activity
[5]
  efficacy compared with ara-CDP-L-dipalmitin: considerably higher efficacy than ara-CDP-L-dipalmitin
[6]
  primary and lymph node metastasis: markedly retarded both primary and lymph node metastasis
[7]
  cytotoxicity to L1210 leukemic cells compared to normal mouse bone marrow cells: selective cytotoxicity to L1210 leukemic cells
[8]
  plasma ara-C concentration and intracellular retention of ara-CTP compared to ara-C: more prolonged plasma ara-C concentration and intracellular retention of ara-CTP
[9]
  therapeutic activity: rather broad spectrum of therapeutic activity
[10]
  effectiveness among ara-C conjugates tested: the most effective of those tested

## AZT diphosphate diglyceride [AZTDP-DG]
[11]
  substitution for CDP-DG in phospholipid biosynthesis: can substitute to varying extents for CDP-DG
